Results published in patent US10563272B2, “Compositions comprising Metarhizium fungi and use thereof as a pesticide” (Cotton Research and Development Corporation, priority 2015, dated 2020).

How the values were obtained:
[1] = system: spiders; test: Foliar spray trial on Bollgard II cotton, Norwood 2010-11 (Example 7): spiders; assay type: in vivo, Lycosa spp., Oxyopes spp., Salticidae spp., Araneus spp.; details: fipronil 62.5 mL/ha; for number of spiders per meter: 1st spray, BC 667/DAT 511 0.50 L/ha; for number of spiders per metre: 2nd spray, BC 667/DAT 511 0.5 L/ha
Experimental: The trial was conducted on commercial Bollgard II® cotton crops at Norwood near Moree, NSW from 5 Dec. 2010 to 19 Feb. 2011. The cotton was at the early squaring stage, when it was attractive to green mirids (Khan et al. 2004).
The study evaluated the efficacy of the following treatments against green mirids, green vegetable bugs and predatory insects: • 1. 500 mL/ha BC 667 spore in oil (1×10^7 spores/ml); • 2. 500 mL/ha DAT 511 spore in oil (1×10^7 spores/ml); • 3. 62.5 mL/ha Fipronil (conventional insecticide); and • 4. Unsprayed (control).
The treatment plots were arranged in a randomized complete block design with four replicates per treatment. Each replicated plot measured 0.5 ha. Foliar application of each treatment was made on 18 Jan. 2011 using a ground spray rig fitted with flat fan nozzles to achieve a droplet size of 80 250 μm. The treatment was applied in the mornings when temperature was between 20° C. and 28° C. The timing of treatment was based on an economic threshold of 0.5 green mirids per metre, the IPM guideline and recommendation by CottonLogic.
Pre-treatment counts of green mirid adults and nymphs, predatory beetles, predatory bugs, predatory lacewings and spiders were made by visual inspection of whole cotton plants. Both adults and nymphs of the beneficial insects were counted. Plants were assessed in randomly selected one-metre lengths of row of each treatment replicate (i.e. four metres per treatment). In all, two spray applications of each treatment were made. The first spray was made on 18 Jan. 2011. Post-treatment counts of the first spray application were taken 3, 7 and 14 days after treatment (DAT) (first spray). A second spray application was done on 1 Feb. 2011 when green mirid adults plus nymphs reached the threshold of 0.5 per metre. Post-treatment counts of the second spray application were taken 3, 7, 14, 21 and 28 DAT. Data are expressed as numbers of individuals of that species counted per metre for each treatment.

[2] = system: green mirids; test: Rate trial on conventional cotton, ACRI 2011-12 (Example 9): green mirids; assay type: in vivo, Creontiades dilutus
Experimental: This trial was conducted in an irrigated field of commercial conventional cotton at the Australian Cotton Research Institute (ACRI) farm in Narrabri, NSW, during the 2011-2012 season. The treatments in this trial were as follows: • 1. 250 mL/ha DAT 511; • 2. 500 mL/ha DAT 511; and • 3. 1 L/ha DAT 511.
Results were compared with data from unsprayed conventional cotton crops (negative control) and conventional cotton crops treated with 62.5 mL/ha of fipronil. The population of apple dimpling bugs at the study site was higher than GVB and green mirids, and remained so throughout the season. Therefore the trials were treated and assessed from 8 Jan. to 12 Feb. 2012 for green mirids, 26 Feb. 2012 for GVB and 4 Mar. 2012 for apple dimpling bugs. The treatment plots were arranged in a randomized complete block design with eight replicates per treatment. Each replicated plot measured 16 m (16 rows) wide and 250 m long.
Foliar applications of each treatment were made on 8 Jan. 22 Jan. and 5 Feb. 2012. The decision to apply the treatment was based on the IPM Guidelines and the CottonLogic recommended economic threshold of 0.5 green mirids per metre. Pre-treatment counts were made by visual counting of the numbers of green mirid, green vegetable bug and apple dimpling bug adults and nymphs, as well as predatory beetles, predatory bugs, predatory lacewings and spiders on cotton plants in each treatment. Post-treatment counts were made following the first spray at 7 and 14 DAT, following the second spray at 7 DAT for green mirids and GVB, and up to 28 DAT for the third spray for apple dimpling bugs. All counts were done on a randomly selected one-metre length of row of each treatment replicate (i.e. total of 8 m). Data were expressed as numbers per metre and numbers per metre per sampling date for each treatment.

[3] = system: predatory beetles; test: Bollgard II cotton, Auscott-Togo 2012-13, Field 63 (Experiment 2): predatory beetles; assay type: in vivo, Coleoptera (Coccinellidae, Melyridae); details: 62.5 mL/ha
Experimental: (§1) Two separate trials (Experiment 1 in Field 77; Experiment 2 in Field 63) were conducted in Bollgard II cotton crops on a commercial cotton farm at Auscott-Togo near Narrabri, New South Wales from 11 Feb. to 5 Mar. 2013 (Field 77) and 19 Feb. to 6 Mar. 2013 (Field 63). The cotton used for each of the trials was at the late squaring to pod setting and maturation stages which was fairly attractive to green mirids.
(§2) In both trials, the efficacy of the following treatments against green mirids and predatory insects was evaluated: • 1. 250 mL/ha DAT 511 spore in oil (1×10^7 spores/ml); • 2. 500 mL/ha DAT 511 spore in oil (1×10^7 spores/ml); • 3. 1 L/ha DAT 511 spore in oil (1×10^7 spores/ml); • 4. 62.5 mL/ha of fipronil; and • 5. Unsprayed (negative control).
(§3) The treatment plots were arranged in a randomized complete block design with six replicates per treatment. Each replicated plot measured 40 m wide (40 rows) and 90 m long.
(§4) Foliar application of each treatment was made on 28 Feb. (for both green mirids and beneficial insects) and 13 Mar. 2012 (for beneficial insects alone) using a ground spray rig fitted with flat fan nozzles to achieve a droplet size of 200 μm. The treatment was applied during the mornings when temperatures were between 20° C. and 28° C. The timing of treatment was based on the IPM Guidelines and recommendations by CottonLogic to use an economic threshold of 0.5 green mirids per metre (Deutscher and Wilson 1999; Khan et al. 2004).
(§5) Pre-treatment counts of green mirid adults and nymphs, predatory beetles, predatory bugs, predatory lacewings and spiders were made by visual inspection of whole cotton plants. Both adults and nymphs of beneficial insects were counted. Plants were assessed in randomly selected one-metre lengths of row of each replicate (i.e. 6 m per treatment). Post-treatment counts were made 3, 7, 14 and 21 days after treatment. Data are expressed as numbers of green mirid adults and nymphs counted per metre for each treatment.

[4] = system: predatory bugs; test: Bollgard II cotton, Auscott-Togo 2012-13, Field 63 (Experiment 2): predatory bugs; assay type: in vivo, Hemiptera (Nabidae, Lygaeidae, Pentatomidae); details: 62.5 mL/ha
Experimental: as §1, §2, §3, §4, §5

N#Cc1nn(-c2c(Cl)cc(C(F)(F)F)cc2Cl)c(N)c1[S+]([O-])C(F)(F)F (centres unmarked) [fipronil]
number of spiders per meter ([1]; 3 DAT): 3.33 ± 0.33 a per meter
number of spiders per meter ([1]; 7 DAT): 4.67 ± 2.03 b per meter
number of spiders per meter ([1]; 14 DAT): 9.67 ± 1.45 a per meter
number of spiders per meter ([1]; pre-spray counts 18 Jan. 2011): 9.33 ± 1.20 a per meter
number of spiders per metre ([1]; 3 DAT): 12.00 ± 1.16a per metre
number of spiders per metre ([1]; 7 DAT): 10.33 ± 2.67a per metre
number of spiders per metre ([1]; 14 DAT): 16.00 ± 0.58b per metre
number of spiders per metre ([1]; 21 DAT): 21.00 ± 3.22a per metre
number of spiders per metre ([1]; 28 DAT): 21.00 ± 3.00a per metre
number of spiders per metre ([1]; pre-spray counts 1 Feb. 2011): 9.67 ± 1.45a per metre
adult mirids found on treated plots ([2]; at the second spray application): no adult mirids were found
adult and nymph green mirids versus unsprayed (control) plots ([2]; different rates of DAT 511, fipronil 62.5 mL/ha, P<0.0001): Significantly fewer
mirid nymphs found on treated plots ([2]; seven days after second spray, DAT 511 500 mL and 1.0 L/ha, fipronil): no mirid nymphs were found
No. predatory beetles per meter ([3]; 3 DAT): 2.67 ± 0.33 a per meter
No. predatory beetles per meter ([3]; 7 DAT): 2.33 ± 0.33 a per meter
No. predatory beetles per meter ([3]; 14 DAT): 0.67 ± 0.33 a per meter
No. predatory beetles per meter ([3]; 21 DAT): 1.67 ± 0.33 a per meter
No. predatory beetles per meter ([3]; pre-spray counts): 5.67 ± 0.67ab per meter
No. predatory bugs per meter ([4]; 3 DAT): 0.00 ± 0.00 a per meter
No. predatory bugs per meter ([4]; 7 DAT): 0.33 ± 0.33 a per meter
No. predatory bugs per meter ([4]; 14 DAT): 0.00 ± 0.00 a per meter
No. predatory bugs per meter ([4]; 21 DAT): 0.00 ± 0.00 a per meter
No. predatory bugs per meter ([4]; pre-spray counts): 0.00 ± 0.00 a per meter
